Measured values: the supplement of paper PMC10307832

How the values were obtained:
Assay in all cases: relative viability (nuclei count vs DMSO), 5 days (fraction); higher = more cells survive
A-427 = tested on: A-427
Procedure, shortened: (§1)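 Five library-drug doses in √10 steps were combined with a fixed anchor-drug dose, or a single drug was given alone, by pin tool to lung cancer cell lines in 1536-well plates the day after seeding. Nuclei were stained and counted after 5 days. Relative viability is the nuclei count in treated wells over that in vehicle wells, taken as the median of duplicate plates.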

COR-L 105 = tested on: COR-L 105
Procedure, shortened: as §1

EPLC-272H = tested on: EPLC-272H
Procedure, shortened: as §1

HCC-366 = tested on: HCC-366
Procedure, shortened: as §1

HCC-78 = tested on: HCC-78
Procedure, shortened: as §1

HOP-62 = tested on: HOP-62
Procedure, shortened: as §1

LC-2-ad = tested on: LC-2-ad
Procedure, shortened: as §1

LU99A = tested on: LU99A
Procedure, shortened: as §1

LXF-289 = tested on: LXF-289
Procedure, shortened: as §1

NCI-H1666 = tested on: NCI-H1666
Procedure, shortened: as §1

NCI-H1792 = tested on: NCI-H1792
Procedure, shortened: as §1

NCI-H1793 = tested on: NCI-H1793
Procedure, shortened: as §1

NCI-H1915 = tested on: NCI-H1915
Procedure, shortened: as §1

NCI-H1944 = tested on: NCI-H1944
Procedure, shortened: as §1

NCI-H2009 = tested on: NCI-H2009
Procedure, shortened: as §1

NCI-H2085 = tested on: NCI-H2085
Procedure, shortened: as §1

NCI-H2170 = tested on: NCI-H2170
Procedure, shortened: as §1

NCI-H358 = tested on: NCI-H358
Procedure, shortened: as §1

NCI-H460 = tested on: NCI-H460
Procedure, shortened: as §1

SK-LU-1 = tested on: SK-LU-1
Procedure, shortened: as §1

SW 900 = tested on: SW 900
Procedure, shortened: as §1

UMC-11 = tested on: UMC-11
Procedure, shortened: as §1

O=c1cc(N2CCOCC2)oc2c(-c3cccc4c3sc3ccccc34)cccc12 + Cc1nc(Nc2ncc(C(=O)Nc3c(C)cccc3Cl)s2)cc(N2CCN(CCO)CC2)n1 [Dasatinib] (partner 0.075 µM)
relative viability (A-427; first compound 0.01 µM): 0.728 | relative viability (A-427; first compound 0.03162 µM): 0.766 | relative viability (A-427; first compound 0.1 µM): 0.677 | relative viability (A-427; first compound 0.3162 µM): 0.636 | relative viability (A-427; first compound 1 µM): 0.792 | relative viability (COR-L 105; first compound 0.01 µM): 0.316 | relative viability (COR-L 105; first compound 0.03162 µM): 0.327 | relative viability (COR-L 105; first compound 0.1 µM): 0.314 | relative viability (COR-L 105; first compound 0.3162 µM): 0.372 | relative viability (COR-L 105; first compound 1 µM): 0.304 | relative viability (EPLC-272H; first compound 0.01 µM): 0.445 | relative viability (EPLC-272H; first compound 0.03162 µM): 0.424 | relative viability (EPLC-272H; first compound 0.3162 µM): 0.339 | relative viability (EPLC-272H; first compound 1 µM): 0.263 | relative viability (HCC-366; first compound 0.01 µM): 0.672 | relative viability (HCC-366; first compound 0.03162 µM): 0.69 | relative viability (HCC-366; first compound 0.1 µM): 0.725 | relative viability (HCC-366; first compound 0.3162 µM): 0.601 | relative viability (HCC-366; first compound 1 µM): 0.618 | relative viability (HCC-78; first compound 0.01 µM): 0.353 | relative viability (HCC-78; first compound 0.03162 µM): 0.363 | relative viability (HCC-78; first compound 0.1 µM): 0.275 | relative viability (HCC-78; first compound 0.3162 µM): 0.292 | relative viability (HCC-78; first compound 1 µM): 0.32 | relative viability (HOP-62; first compound 0.01 µM): 0.676 | relative viability (HOP-62; first compound 0.03162 µM): 0.676 | relative viability (HOP-62; first compound 0.1 µM): 0.672 | relative viability (HOP-62; first compound 0.3162 µM): 0.639 | relative viability (HOP-62; first compound 1 µM): 0.616 | relative viability (LC-2-ad; first compound 0.01 µM): 0.536 | relative viability (LC-2-ad; first compound 0.03162 µM): 0.688 | relative viability (LC-2-ad; first compound 0.1 µM): 0.775 | relative viability (LC-2-ad; first compound 0.3162 µM): 0.578 | relative viability (LC-2-ad; first compound 1 µM): 0.527 | relative viability (LU99A; first compound 0.01 µM): 0.552 | relative viability (LU99A; first compound 0.03162 µM): 0.596 | relative viability (LU99A; first compound 0.1 µM): 0.741 | relative viability (LU99A; first compound 0.3162 µM): 0.535 | relative viability (LU99A; first compound 1 µM): 0.421 | relative viability (LXF-289; first compound 0.01 µM): 0.239 | relative viability (LXF-289; first compound 0.03162 µM): 0.223 | relative viability (LXF-289; first compound 0.1 µM): 0.187 | relative viability (LXF-289; first compound 0.3162 µM): 0.213 | relative viability (LXF-289; first compound 1 µM): 0.247 | relative viability (NCI-H1666; first compound 0.01 µM): 0.775 | relative viability (NCI-H1666; first compound 0.03162 µM): 0.787 | relative viability (NCI-H1666; first compound 0.1 µM): 0.755 | relative viability (NCI-H1666; first compound 0.3162 µM): 0.809 | relative viability (NCI-H1666; first compound 1 µM): 0.754 | relative viability (NCI-H1792; first compound 0.01 µM): 0.857 | relative viability (NCI-H1792; first compound 0.03162 µM): 0.663 | relative viability (NCI-H1792; first compound 0.1 µM): 0.856 | relative viability (NCI-H1792; first compound 0.3162 µM): 0.996 | relative viability (NCI-H1792; first compound 1 µM): 0.788 | relative viability (NCI-H1793; first compound 0.01 µM): 0.372 | relative viability (NCI-H1793; first compound 0.1 µM): 0.394 | relative viability (NCI-H1793; first compound 0.3162 µM): 0.314 | relative viability (NCI-H1793; first compound 1 µM): 0.405 | relative viability (NCI-H1915; first compound 0.01 µM): 0.33 | relative viability (NCI-H1915; first compound 0.03162 µM): 0.334 | relative viability (NCI-H1915; first compound 0.1 µM): 0.314 | relative viability (NCI-H1915; first compound 0.3162 µM): 0.321 | relative viability (NCI-H1915; first compound 1 µM): 0.316 | relative viability (NCI-H1944; first compound 0.01 µM): 0.218 | relative viability (NCI-H1944; first compound 0.03162 µM): 0.234 | relative viability (NCI-H1944; first compound 0.1 µM): 0.203 | relative viability (NCI-H1944; first compound 0.3162 µM): 0.24 | relative viability (NCI-H1944; first compound 1 µM): 0.225 | relative viability (NCI-H2009; first compound 0.01 µM): 0.317 | relative viability (NCI-H2009; first compound 0.03162 µM): 0.268 | relative viability (NCI-H2009; first compound 0.1 µM): 0.303 | relative viability (NCI-H2009; first compound 0.3162 µM): 0.277 | relative viability (NCI-H2009; first compound 1 µM): 0.256 | relative viability (NCI-H2085; first compound 0.01 µM): 0.267 | relative viability (NCI-H2085; first compound 0.03162 µM): 0.241 | relative viability (NCI-H2085; first compound 0.1 µM): 0.253 | relative viability (NCI-H2085; first compound 0.3162 µM): 0.225 | relative viability (NCI-H2085; first compound 1 µM): 0.219 | relative viability (NCI-H2170; first compound 0.01 µM): 0.574 | relative viability (NCI-H2170; first compound 0.03162 µM): 0.569 | relative viability (NCI-H2170; first compound 0.1 µM): 0.728 | relative viability (NCI-H2170; first compound 0.3162 µM): 0.557 | relative viability (NCI-H2170; first compound 1 µM): 0.621 | relative viability (NCI-H358; first compound 0.01 µM): 0.179 | relative viability (NCI-H358; first compound 0.03162 µM): 0.145 | relative viability (NCI-H358; first compound 0.1 µM): 0.201 | relative viability (NCI-H358; first compound 0.3162 µM): 0.182 | relative viability (NCI-H358; first compound 1 µM): 0.167 | relative viability (NCI-H460; first compound 0.01 µM): 0.558 | relative viability (NCI-H460; first compound 0.03162 µM): 0.54 | relative viability (NCI-H460; first compound 0.1 µM): 0.516 | relative viability (NCI-H460; first compound 0.3162 µM): 0.512 | relative viability (NCI-H460; first compound 1 µM): 0.452 | relative viability (SK-LU-1; first compound 0.01 µM): 0.173 | relative viability (SK-LU-1; first compound 0.03162 µM): 0.175 | relative viability (SK-LU-1; first compound 0.1 µM): 0.166 | relative viability (SK-LU-1; first compound 0.3162 µM): 0.195 | relative viability (SK-LU-1; first compound 1 µM): 0.181 | relative viability (SW 900; first compound 0.01 µM): 0.476 | relative viability (SW 900; first compound 0.03162 µM): 0.648 | relative viability (SW 900; first compound 0.1 µM): 0.66 | relative viability (SW 900; first compound 0.3162 µM): 0.539 | relative viability (SW 900; first compound 1 µM): 0.507 | relative viability (UMC-11; first compound 0.01 µM): 0.452 | relative viability (UMC-11; first compound 0.03162 µM): 0.471 | relative viability (UMC-11; first compound 0.1 µM): 0.487 | relative viability (UMC-11; first compound 0.3162 µM): 0.439 | relative viability (UMC-11; first compound 1 µM): 0.527
